Test results reported in patent publication US11046680B1, “Heteroaryl-substituted triazoles as APJ receptor agonists” (priority 2016, dated 2021).

Tests used:
[1] = tested on: heart failure rat model (MI Rat Model); assay: In vivo cardiac contractility in heart failure (MI) rat model; design: species or system Lewis rat; settings: heart failure rats in vivo, acute settings
Method: Evidence for Improvement in Cardiac Contractility In Vivo in Heart Failure Rat Model
Based on the ex vivo findings in isolated heart assay, APJ agonists were dosed in vivo to investigate the translation of cardiac contractility in in vivo settings. Male Lewis rats (Charles River, USA) at 2-3 months of age were used for the study. Heart failure was induced by permanent ligation of the left descending coronary artery which results in injury to the heart with an ejection fraction of <35%. APJ agonists were administered dose dependently acutely for a period of 30 min. Administration of example compounds lead to an increase in cardiac contractility as measured by dP/dtmax (derivative of left ventricular pressure) (Table 41).

[2] = cited from earlier work
human APJ receptor = human APJ receptor (Homo sapiens (Human), UniProt P35414); assay: biochemical; assay type: biochemical; settings: [35S]GTPγS binding, CHO membranes expressing human APJ receptor; read-out: Activity hAPJ SPA EC50 IP
How it was run: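 GTPγS binding on membranes from CHO cells stably expressing FLAG-tagged human APJ, with optimized GDP, MgCl2 and NaCl; incubated 90 min at RT before imaging read-out.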

Chain of human APJ receptor (P35414 whole entry): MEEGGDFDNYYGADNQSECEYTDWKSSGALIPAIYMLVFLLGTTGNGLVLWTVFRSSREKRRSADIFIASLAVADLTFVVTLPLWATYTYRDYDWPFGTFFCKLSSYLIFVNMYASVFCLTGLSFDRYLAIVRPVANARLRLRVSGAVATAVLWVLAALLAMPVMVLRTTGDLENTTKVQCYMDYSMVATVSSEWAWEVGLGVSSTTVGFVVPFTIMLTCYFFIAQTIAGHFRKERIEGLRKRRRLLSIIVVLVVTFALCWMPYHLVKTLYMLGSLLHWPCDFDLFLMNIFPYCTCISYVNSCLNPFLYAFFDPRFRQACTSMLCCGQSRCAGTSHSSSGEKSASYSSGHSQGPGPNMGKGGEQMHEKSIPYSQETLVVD

Compound: C[C@H](CS)C(=O)N1CCC[C@H]1C(=O)O [Captopril]
- improvement in contractility or ejection fraction [1]: does not show a marked improvement in contractility or ejection fraction

Compound: Apelin-13 (QRPRLSHKGPMPF; Apelin-13; UniProt Q9ULZ1 65-77, looked up)
- plasma half-life [2]: < 5 min

Compound: COc1cccc(OC)c1-n1c(NS(=O)(=O)[C@H](C)[C@H](O)c2ncc(C)cn2)nnc1-c1nc(C)cs1 (single isomer, unassigned) [Example 314.0, (1R,2R)-N-(4-(2,6-dimethoxyphenyl)-5-(4-methylthiazol-2-yl)-4H-1,2,4-triazol-3-yl)-1-hydroxy-1-(5-methylpyrimidin-2-yl)propane-2-sulfonamide or (1S,2S)-N-(4-(2,6-dimethoxyphenyl)-5-(4-methylthiazol-2-yl)-4H-1,2,4-triazol-3-yl)-1-hydroxy-1-(5-methylpyrimidin-2-yl)propane-2-sulfonamide]
- EC50 (human APJ receptor): 14 nM
